Data from US11638424B2, “Mosquito attractant formulations and uses thereof” (priority 2017, dated 2023).

Columns and labels:
A. gambiae sensu lato = experiment: Mosquito fitness after blood feeding (blood meal size, fecundity, survival); type: in vivo; conditions: hRBCs vs RBCs
Experimental: Mosquitoes used in this study were from the laboratory colony of A. gambiae sensu lato (Keele line, University of Glasgow), which was produced by balanced interbreeding of four A. gambiae s.s. strains (H. Hurd, et al. Evolution, 59, 2560-2572 (2005)). Larvae were reared under standard insectary conditions (27±1° C., 70% humidity, 12 h light: 12 h dark cycle) and fed on TetraMin fish flakes (Tetra ltd., Germany). Pupae were transferred into holding cages for emergence. Emerged adults were fed ad libitum on 5% glucose solution, supplemented with 0.05% (w/v) 4-aminobenzoic acid (PABA, Sigma-Aldrich), through soaked filters on top of the 2 ml tubes and with soaked filter pads inside cages. Red blood cells (RBCs) were washed with Roswell Park Memorial Institute (RPMI) medium and stored in RPMI at 50% haematocrit at 4° C. until use. To measure the effect of HMBPP on mosquito fitness, RBCs stored in RPMI were centrifuged at 2500×g for 5 min followed by replacement of the medium with AB serum for a final haematocrit of 40%. HMBPP (stock concentration at 4 mM in Nanopure water, stored at −80° C.) was diluted to 10 μM in 1 ml RBC suspension, and the corresponding volume of Nanopure water was added to the control RBCs. All experiments were, unless otherwise stated, conducted on 5-7 days post-emergence female mosquitoes maintained in separated cages (approximately 210 individuals per cohort) and fed RBCs either with or without HMBPP for 30 min. All experiments were performed in triplicates.
GLMM statistical modelling was used to corroborate the validity of results based on the whole data set by including the effect of replications (experimental blocks), including weighting for multiple replications. In all analyses, the effect of the main experimental effects (e.g. treatment) was investigated while controlling for variation in experimental replication (random variable). For all results, the significance of all explanatory effects were evaluated by using likelihood ratio test (LRT). Analyses were performed using R statistical software. […]

RBCs = experiment: Volatile collection (SPME) and GC-MS analysis of RBC headspace; type: cell-based, Human; conditions: 10 μM HMBPP, FIGS. 2C and D
Experimental: RBCs (1 ml) were transferred to 4 ml glass vials closed with auto-sampler screw caps, and equilibrated in a thermostat at 38° C. for 15 min. Then, 2.5 μl of HMBPP or Nanopure water were added to the RBCs samples (final concentration: 10 μM HMBPP per sample). Volatiles were collected from the headspace using solid phase micro-extraction (SPME; Supelco, Bellmonte, Pa., USA) (M. J. Yang, el al., J. Chem. Educ., 74, 1130-1132 (1997) and A. K. Borg-Karlson and R. Mozuraitis, Naturforsch., C. 51, 599-602 (1996)). […] Electron ionisation mass spectra were determined at 70 eV with the ion source kept at 230° C. and mass spectra were obtained at mass to charge ratio (m/z) 29-400. […] A similar protocol was used for the quantification of CO2, with the mass spectral data and GC retention times being compared with emission from frozen CO2. The relative amounts of CO2 in arbitrary units were determined from the areas of the respective chromatogram peaks using single ion display mode at m/z 44±0.5 Da. The amounts of identified compounds were quantified by the use of extracted ion chromatograms, since they are very minute. […] The estimations were based on the very same quantifications given in ‘arbitrary area units’. […]

## C/C(=C\COP(=O)(O)OP(=O)(O)O)CO [HMBPP, (E)-4-hydroxy-3-methyl-but-2-enyl pyrophosphate]
A. gambiae sensu lato; FIG. 3A
  mosquito fecundity: Neither mosquito fecundity, nor survival was affected
A. gambiae sensu lato; FIG. 3B
  mosquito survival: Neither mosquito fecundity, nor survival was affected
A. gambiae sensu lato; FIG. 3C
  size of mosquito blood meals: significantly increased
RBCs
  increase in aldehydes (C8-C10:al) in headspace of hRBCs compared to RBCs: 1.7-to-5.2 fold
  increase in monoterpenes (α- and ß-pinene, limonene) in headspace of hRBCs compared to RBCs: 1.2-to-1.6 fold
